Measured values: patent publication US20130029884A1, “BIOCIDE FORMULATIONS” (ENVIROSYSTEMS, INC., priority 2011, published 2013)

Columns and labels:
[1] = system: sulfate reducing bacteria (SRB); assay: microbiological kill study in field water (bottle growth test), sulfate reducing bacteria; type: cell-based; conditions: field water from a well in Texas; active biocide 94 to 500 ppm tested
Procedure: (§1) Microbiological studies were carried out with the formulation of Example 1 and compared to tests with other known biocides. The field water used for testing came from a well in Texas. The biocides were tested at varying concentrations of the active biocide in the field water at active biocide concentrations from 94 parts per million (ppm) to 500 ppm. The biocide of Example 1 was tested along with several known biocides.
(§2) Microbiological kill studies were carried out in field waters considered to be problematic.
(§3) A field water sample was used to dilute the formulation and growth media was added. […] For the SRB concentrations up to 150 ppm PCMX were studied. […] For the APB samples, concentrations of up to 100 ppm PCMX were studied. […] The diluted sample was also tested after the sample had experienced four freeze/thaw cycles and the sample with growth media added was tested with PCMX concentrations up to 100 ppm PCMX.
(§4) For the 42 ppm hydrogen sulfide concentration water, testing was carried out with PCMX concentrations up to 100 ppm. […] For the 24 ppm hydrogen sulfide concentration water, testing was carried out with PCMX concentrations up to 125 ppm.

[2] = system: acid producing bacteria (APB); assay: microbiological kill study in field water (bottle growth test), acid producing bacteria; type: cell-based; conditions: field water from a well in Texas; active biocide 94 to 500 ppm tested
Procedure: as §1, §2, §3, §4

[3] = cited from earlier work

## N#CC(Br)(Br)C(N)=O [DBNPA, dibromocyanoacetamide]
[1]
  active biocide concentration with complete kill of SRB: 20 ppm
[2]
  active biocide concentration with complete kill of APB: 20 ppm

## CN1CSC(=S)N(C)C1 [Dazomet]
[1]
  active biocide concentration with complete kill of SRB: > 270 ppm
[2]
  active biocide concentration with complete kill of APB: > 270 ppm
[3]
  hydrolysis half life: 3.6 h

## O=CCCCC=O [glutaraldehyde]
[1]
  active biocide concentration with complete kill of SRB: 250 ppm
[2]
  active biocide concentration with complete kill of APB: 250 ppm

## tetrakis hydroxylmethyl phosphonium sulfate [THPS]
[1]
  active biocide concentration with complete kill of SRB: 150 ppm
[2]
  active biocide concentration with complete kill of APB: 150 ppm
